# Data taken from patent US20230116703A1, “NOVEL ERGOLINES AND METHODS OF TREATING MOOD DISORDERS” (priority 2021, published 2023).
# Like-named read-outs stand apart in the source and are kept apart here.
# Experiments:
# 5-HT2A receptor [1] = biological target: T1, 5-HT2A receptor (Homo sapiens, UniProt P28223); test: biochemical; type: binding; conditions: 1 nM [^3H]ketanserin, HEK293 stable cell line; read-out: 5-HT2A Receptor Ki (nM) ([^3H]ketanserin)
# T1 construct: host or cells: HEK293
# How it was run: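 Values reflect [^3H]ketanserin binding competition. Assay conditions were adapted from the literature.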
# 5-HT2A receptor [2] = biological target: T1, 5-HT2A receptor; test: cell-based; type: cell-based; conditions: for EC50: Ca^2+ flux, agonist, read-out: 5-HT2A EC50
# human 5-HT2C receptor = biological target: T2, human 5-HT2C receptor (Homo sapiens, UniProt P28335); test: cell-based; conditions: Ca^2+ flux, agonist
# T2 sequence (P28335 33-458): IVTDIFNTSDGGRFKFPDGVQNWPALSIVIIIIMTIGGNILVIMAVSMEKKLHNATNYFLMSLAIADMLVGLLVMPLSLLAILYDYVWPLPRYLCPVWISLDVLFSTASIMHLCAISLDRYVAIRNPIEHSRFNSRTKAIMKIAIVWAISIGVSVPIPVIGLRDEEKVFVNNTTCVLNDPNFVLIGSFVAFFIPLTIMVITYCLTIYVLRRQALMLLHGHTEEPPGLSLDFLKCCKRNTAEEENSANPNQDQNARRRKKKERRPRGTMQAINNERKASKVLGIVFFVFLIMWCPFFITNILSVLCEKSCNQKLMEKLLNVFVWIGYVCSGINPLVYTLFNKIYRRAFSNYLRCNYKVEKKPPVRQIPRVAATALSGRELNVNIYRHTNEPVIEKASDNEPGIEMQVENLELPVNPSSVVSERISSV
# D1 receptor = D1 receptor (Homo sapiens, UniProt P21728); test: FLIPR Ca^2+ flux agonist assay at D1; type: cell-based
# Sequence of D1 receptor (P21728 whole entry): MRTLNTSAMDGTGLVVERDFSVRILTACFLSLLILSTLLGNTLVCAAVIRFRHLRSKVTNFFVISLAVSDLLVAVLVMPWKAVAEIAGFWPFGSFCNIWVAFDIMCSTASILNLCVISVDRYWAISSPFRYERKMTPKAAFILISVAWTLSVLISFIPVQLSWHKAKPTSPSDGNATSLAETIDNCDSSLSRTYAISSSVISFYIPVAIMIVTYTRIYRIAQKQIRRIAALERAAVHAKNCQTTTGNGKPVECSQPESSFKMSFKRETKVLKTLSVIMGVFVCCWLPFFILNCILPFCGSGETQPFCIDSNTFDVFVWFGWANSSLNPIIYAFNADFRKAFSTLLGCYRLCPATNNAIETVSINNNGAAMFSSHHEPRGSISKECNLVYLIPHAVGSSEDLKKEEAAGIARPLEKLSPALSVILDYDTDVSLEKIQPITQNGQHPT
# Experimental: (§1) Functional Assays at Adrenergic and Dopamine Receptors. Agonist activity at Alpha1A, Alpha2A, D1, and D2 receptors was determined using a FLIPR Ca^2+ flux assay at WuXi AppTec (Hong Kong) Limited according to their standard protocols. Briefly, stably transfected cells expressing the receptor of interest were grown and plated in a 384 well plate and incubated at 37° C. and 5% CO2 overnight. A solution of 250 mM probenecid in 1 mL FLIPR assay buffer was prepared fresh. This was combined with a fluorescent dye (Fluo-4 Direct™) to make a final assay concentration of 2.5 mM. […] The fluorescent dye was then added to the assay plate along with assay buffer to a final volume of 40 μL. The cell plate was incubated for 50 min at 37° C. and 5% CO2 and placed into the FLIPR Tetra along with the compound plate. 10 μL of references and compounds were then transferred from the compound plate into the cell plate and the fluorescent signal was read.
# D2 receptor = D2 receptor (Homo sapiens, UniProt P14416); test: FLIPR Ca^2+ flux agonist assay at D2; type: cell-based
# Sequence of D2 receptor (P14416 whole entry): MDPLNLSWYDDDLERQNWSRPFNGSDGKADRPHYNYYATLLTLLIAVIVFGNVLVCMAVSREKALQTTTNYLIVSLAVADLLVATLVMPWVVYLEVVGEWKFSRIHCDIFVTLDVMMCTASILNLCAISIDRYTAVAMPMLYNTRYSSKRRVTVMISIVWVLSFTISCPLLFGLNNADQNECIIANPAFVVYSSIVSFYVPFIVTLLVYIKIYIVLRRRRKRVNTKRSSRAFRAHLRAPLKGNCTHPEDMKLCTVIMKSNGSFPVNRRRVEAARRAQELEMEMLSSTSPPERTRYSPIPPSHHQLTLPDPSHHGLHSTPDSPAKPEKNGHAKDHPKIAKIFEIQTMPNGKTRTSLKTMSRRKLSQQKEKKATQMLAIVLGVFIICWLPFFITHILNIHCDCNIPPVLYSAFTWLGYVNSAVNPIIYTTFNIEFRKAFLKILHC
# Experimental: as §1
# C57BL/6 mice = test: Head twitch response (HTR) in mice; type: in vivo, mouse; conditions: SC; for ED50: 20 min, read-out: ED50 (95% CI); for ED50 / Most Efficacious Dose / Emax (95% CI): mouse HTR; for ED50 / Emax (95% CI): 20 min observation, curve fit, poor in some cases; for # HTR at Most Efficacious Dose: head twitches in 20 min
# [3] = Metabolic stability in rat liver microsomes (RLM); conditions: for t1/2: RLM, 0.50 mg protein per mL; for microsomal CLint at 1 μM: both, rat, pooled rat liver microsomes, pH 7.4
# [4] = Ca^2+ flux, agonist, read-out: D1 EC50
# [5] = Ca^2+ flux, agonist, read-out: D2 EC50
# T1 sequence (P28223 whole entry): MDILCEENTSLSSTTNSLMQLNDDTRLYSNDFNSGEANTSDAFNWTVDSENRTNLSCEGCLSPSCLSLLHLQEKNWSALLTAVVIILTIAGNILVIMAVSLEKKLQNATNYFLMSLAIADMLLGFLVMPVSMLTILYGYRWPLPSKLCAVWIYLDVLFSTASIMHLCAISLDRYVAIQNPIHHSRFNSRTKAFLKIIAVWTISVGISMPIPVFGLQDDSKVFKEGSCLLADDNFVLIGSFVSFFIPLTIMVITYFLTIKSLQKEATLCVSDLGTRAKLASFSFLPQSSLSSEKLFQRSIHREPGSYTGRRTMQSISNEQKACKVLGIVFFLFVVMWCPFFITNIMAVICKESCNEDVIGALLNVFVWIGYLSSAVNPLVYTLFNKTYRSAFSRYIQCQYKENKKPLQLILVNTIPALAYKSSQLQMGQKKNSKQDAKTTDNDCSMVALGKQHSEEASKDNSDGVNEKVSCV
SMILES,Ki (5-HT2A receptor [1]),EC50 (5-HT2A receptor [2]),EC50 (human 5-HT2C receptor),EC50 (D1 receptor),EC50 (D2 receptor),ED50 (C57BL/6 mice),Most Efficacious Dose (C57BL/6 mice),Emax (95% CI) (C57BL/6 mice),induction of head twitch response (in words) (C57BL/6 mice; mouse),t1/2 [3],microsomal CLint at 1 μM [3],selectivity for the 5-HT2A receptor over the tested adrenergic and dopamine receptors (in words) (5-HT2A receptor [2]; Ca^2+ flux functional assays),# HTR at Most Efficacious Dose (C57BL/6 mice; mouse),efficacy in HTR assay (in words) (C57BL/6 mice; mouse),EC50 (D1 receptor; [4]),EC50 (D2 receptor; [5])
"CCCN1C[C@H](C(=O)N(CC)CC)C=C2c3cccc4[nH]cc(c34)C[C@H]21 [Compound 1, (6aR,9R)—N,N-diethyl-7-propyl-4,6,6a,7,8,9-hexahydroindolo[4,3-fg]quinoline-9-carboxamide]",1.06 nM,18.5 nM,11.9 nM,4.64 nM,2.17 nM,0.0946 mg/kg,1 mg/kg,21.63 (18.45-25.78),robust and dose-dependent HTR,16.2 min,85.4 µL/min/mg,,,,,
"CCN(CC)C(=O)[C@@H]1C=C2c3cccc4[nH]cc(c34)C[C@H]2N(CCCF)C1 [Compound 2, (6aR,9R)—N,N-diethyl-7-(3-fluoropropyl)-4,6,6a,7,8,9-hexahydroindolo[4,3-fg]quinoline-9-carboxamide]",2.79 nM,11.1 nM,4.35 nM,86.4 nM,27.7 nM,0.0703 mg/kg,0.32 mg/kg,20.47 (18.43-22.6),,11.972 min,116 µL/min/mg,,,,,
"CCCN1C[C@H](C(=O)N[C@H](C)CC)C=C2c3cccc4[nH]cc(c34)C[C@H]21 [Compound 3, (6aR,9R)—N—((R)-sec-butyl)-7-propyl-4,6,6a,7,8,9-hexahydroindolo[4,3-fg]quinoline-9-carboxamide]",1.36 nM,1.57 nM,0.822 nM,47.9 nM,27.2 nM,0.0401 mg/kg,0.32 mg/kg,25.56 (22.08-29.36),,4.4 min,318 µL/min/mg,exceptional selectivity,27.0,,,
"CCCN1C[C@H](C(=O)N2[C@@H](C)C[C@@H]2C)C=C2c3cccc4[nH]cc(c34)C[C@H]21 [Compound 4, ((2S,4S)-2,4-dimethylazetidin-1-yl)((6aR,9R)-7-propyl-4,6,6a,7,8,9-hexahydroindolo[4,3-fg]quinolin-9-yl)methanone]",3.07 nM,21.3 nM,5.6 nM,81.8 nM,21 nM,0.376 mg/kg,0.1 mg/kg,4.034 (2.965-5.217),,12.8 min,108 µL/min/mg,,,less efficacious,,
"CCCN1C[C@H](C(=O)NC(CC)CC)C=C2c3cccc4[nH]cc(c34)C[C@H]21 [Compound 6, (6aR,9R)—N-(pentan-3-yl)-7-propyl-4,6,6a,7,8,9-hexahydroindolo[4,3-fg]quinoline-9-carboxamide]",1.16 nM,11.3 nM,6.18 nM,18.1 nM,7.01 nM,0.139 mg/kg,1 mg/kg,23.06 (19.86-27.47),,1.655 min,837 µL/min/mg,,,,,
"CCN(CC)C(=O)[C@@H]1C=C2c3cccc4[nH]cc(c34)C[C@H]2N(Cc2ccccc2OC)C1 [Compound 10, (6aR,9R)—N,N-diethyl-7-(2-methoxybenzyl)-4,6,6a,7,8,9-hexahydroindolo[4,3-fg]quinoline-9-carboxamide]",32.7 nM,643 nM,> 10000 nM,,,1.26 mg/kg,3.2 mg/kg,7.749 (4.126-???),,3.4 min,407 µL/min/mg,,6.5,low efficacy,2780 nM,983 nM
"CCN(CC)C(=O)[C@@H]1C=C2c3cccc4[nH]cc(c34)C[C@H]2N(CCc2ccccc2OC)C1 [Compound 11, (6aR,9R)—N,N-diethyl-7-(2-methoxyphenethyl)-4,6,6a,7,8,9-hexahydroindolo[4,3-fg]quinoline-9-carboxamide]",0.69 nM,216 nM,74.5 nM,,,2.21 mg/kg,3.2 mg/kg,19.79 (12.66-80.7),,1.159 min,1200 µL/min/mg,,12.0,low efficacy,1590 nM,854 nM
